Values quoted from earlier work, collected in US9480691B1, “Topical liquid containing refined peanut oil for treating skin proliferation or inflammation disorders” (Hill Dermaceuticals, Inc., priority 2009, dated 2016).

Test system: hypothalamus-pituitary-adrenal (HPA) axis
Conditions: at effective and prescribed doses

For `CCC(=O)O[C@]1(C(=O)CCl)[C@@H](C)C[C@H]2[C@@H]3CCC4=CC(=O)C=C[C@]4(C)[C@@]3(F)[C@@H](O)C[C@@]21C` [clobetasol propionate, (11β,16β)-21-chloro-9-fluoro-11-hydroxy-16-methyl-17-(1-oxo-propoxy)pregna-1,4-diene,3,10-dione], which “effect on HPA axis” value is on record?
The value was “suppress the hypothalamus-pituitary-adrenal (HPA) axis”.
